In US9833497B2, “Human originated EGF domain proteins and use of the same” (CHENGDU SOURCEBIO LIMITED-LIABILITY COMPANY, priority 2013, dated 2017):

Key:
Assay type in all cases: cell-based
E. coli DH5α = experiment: Antibacterial activity: MIC and growth curve against E. coli DH5α in 96-well plate; conditions: minimal inhibitory concentration against E. coli DH5α; 96-well plate, 5×10^5 CFU/mL, 37° C., judged after 8 h
In short: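 Log-phase bacteria (OD600 ~0.5) resuspended in LB at 5×10^5 CFU/mL, exposed to recombinant protein at 50, 25, 12.5 μg/mL final in triplicate, 37 °C shaking at 175 rpm. OD600 read every 30 min; MIC is lowest concentration showing no growth.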

E. coli BL21 = experiment: MIC against Gram-negative bacteria: E. coli BL21; conditions: for MIC: E. coli BL21
In short: (§1)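 Growth inhibition by human EGF domain proteins was scored in LB liquid culture seeded at 5×10^5 CFU/mL. Protein was applied as a two-fold dilution series in triplicate, with shaking incubation at 37° C; MIC is the lowest concentration giving no growth.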

Pseudomonas aeruginosa = experiment: MIC against Gram-negative bacteria: Pseudomonas aeruginosa; conditions: for MIC: P. aeruginosa
In short: as §1

Klebsiella pneumonia = experiment: MIC against Gram-negative bacteria: Klebsiella pneumonia; conditions: for MIC: K. pneumonia
In short: as §1

Enterobacter cloacae = experiment: MIC against Gram-negative bacteria: Enterobacter cloacae; conditions: for MIC: E. cloacae
In short: as §1

Aeromonas hydrophila = experiment: MIC against Gram-negative bacteria: Aeromonas hydrophila; conditions: for MIC: A. hydrophila
In short: as §1

Citrobacter diversus = experiment: MIC against Gram-negative bacteria: Citrobacter diversus; conditions: for MIC: C. diversus
In short: as §1

Moraxella catarrhalis = experiment: MIC against Gram-negative bacteria: Moraxella catarrhalis; conditions: for MIC: M. catarrhalis
In short: as §1

Proteus mirabilis = experiment: MIC against Gram-negative bacteria: Proteus mirabilis; conditions: for MIC: P. mirabilis
In short: as §1

Proteus vulgaris = experiment: MIC against Gram-negative bacteria: Proteus vulgaris; conditions: for MIC: P. vulgaris
In short: as §1

Serratia marcescens = experiment: MIC against Gram-negative bacteria: Serratia marcescens; conditions: for MIC: S. marcescens
In short: as §1

[1] = 10 h cultivation at 37° C., 5×10^5 CFU/mL, two-fold serial dilution
[2] = 96-well plate, 5×10^5 CFU/mL, 37° C., 10 h
[3] = 10 h cultivation at 37° C., 5×10^5 CFU/mL

| Substance | MIC (E. coli DH5α) [µg/mL] | MIC (E. coli BL21; 10 h cultivation at 37° C.) [µg/mL] | MIC (Pseudomonas aeruginosa; 10 h cultivation at 37° C.) [µg/mL] | MIC (Klebsiella pneumonia; 10 h cultivation at 37° C.) [µg/mL] | MIC (Enterobacter cloacae; 10 h cultivation at 37° C.) [µg/mL] | MIC (Aeromonas hydrophila; 10 h cultivation at 37° C.) [µg/mL] | MIC (Citrobacter diversus; 10 h cultivation at 37° C.) [µg/mL] | MIC (Moraxella catarrhalis; 10 h cultivation at 37° C.) [µg/mL] | MIC (Proteus mirabilis; 10 h cultivation at 37° C.) [µg/mL] | MIC (Proteus vulgaris; 10 h cultivation at 37° C.) [µg/mL] | MIC (Serratia marcescens; 10 h cultivation at 37° C.) [µg/mL] | other results |
| --- | --- | --- | --- | --- | --- | --- | --- | --- | --- | --- | --- | --- |
| PRT1002 (FPDPCQNAQLCQNGGSCQALLPAPLGLPSSPSPLTPSFLCTCLPGFTGERCQ; listed as Homo sapiens) | 25 | 12.5 | 25 | 50 | 12.5 | 50 | 25 | 12.5 | 25 | 50 | 12.5 |  |
| PRT1041 (VPLCAQECVHGRCVAPNQCQCVPGWRGDDCS; listed as Homo sapiens) | 12.5 | 25 | 50 | 25 | 50 | 50 | 12.5 | 50 | 25 | 50 | 25 |  |
| PRT1083 (GTNVCAVANGGCQQLCLYRGRGQRACACAHGMLAEDGASCR; listed as Homo sapiens) | 50 |  |  |  |  |  |  |  |  |  |  | MIC E. coli BL21 (E. coli BL21; [1]): 12.5 µg/mL; MIC P. aeruginosa (Pseudomonas aeruginosa; [1]): 50 µg/mL; MIC K. pneumonia (Klebsiella pneumonia; [1]): 50 µg/mL; MIC E. cloacae (Enterobacter cloacae; [1]): 50 µg/mL; MIC A. hydrophila (Aeromonas hydrophila; [1]): 25 µg/mL; MIC C. diversus (Citrobacter diversus; [1]): 12.5 µg/mL; MIC M. catarrhalis (Moraxella catarrhalis; [1]): 50 µg/mL; MIC P. mirabilis (Proteus mirabilis; [1]): 25 µg/mL; MIC P. vulgaris (Proteus vulgaris; [1]): 50 µg/mL; MIC S. marcescens (Serratia marcescens; [1]): 25 µg/mL |
| PRT524 (CNCSRRGTIEAAMPECDRDSGQCRCKPRITGRQCDRCASGFYRFPECVP; listed as Homo sapiens) | 12.5 |  |  |  |  |  |  |  |  |  |  | MIC against E. coli BL21 (E. coli BL21; [2]): 12.5 µg/mL; MIC against P. aeruginosa (Pseudomonas aeruginosa; [2]): 12.5 µg/mL; MIC against K. pneumonia (Klebsiella pneumonia; [2]): 25 µg/mL; MIC against E. cloacae (Enterobacter cloacae; [2]): 12.5 µg/mL; MIC against A. hydrophila (Aeromonas hydrophila; [2]): 25 µg/mL; MIC against C. diversus (Citrobacter diversus; [2]): 100 µg/mL; MIC against M. catarrhalis (Moraxella catarrhalis; [2]): 25 µg/mL; MIC against P. mirabilis (Proteus mirabilis; [2]): 12.5 µg/mL; MIC against P. vulgaris (Proteus vulgaris; [2]): 25 µg/mL; MIC against S. marcescens (Serratia marcescens; [2]): 50 µg/mL |
| PRT318 (DVDECEKNPCAGGECINNQGSYTCQCRAGYQSTLTRTECR; listed as Homo sapiens) | 12.5 |  |  |  |  |  |  |  |  |  |  | MIC (E. coli BL21; [3]): 12.5 µg/mL; MIC (Pseudomonas aeruginosa; [3]): 12.5 µg/mL; MIC (Klebsiella pneumonia; [3]): 50 µg/mL; MIC (Enterobacter cloacae; [3]): 12.5 µg/mL; MIC (Aeromonas hydrophila; [3]): 50 µg/mL; MIC (Citrobacter diversus; [3]): 12.5 µg/mL; MIC (Moraxella catarrhalis; [3]): 50 µg/mL; MIC (Proteus mirabilis; [3]): 12.5 µg/mL; MIC (Proteus vulgaris; [3]): 25 µg/mL; MIC (Serratia marcescens; [3]): 50 µg/mL |
| PRT1025 (GHNYCSVNNGGCTHLCLATPGSRTCRCPDNTLGVDCI; listed as Homo sapiens) | 50 | 25 | 12.5 | 25 | 50 | 100 | 50 | 25 | 12.5 | 25 | 50 |  |
